Results published in paper PMC12004523, “Integrated Virtual Screening Approach Identifies New CYP19A1 Inhibitors” (Journal of Chemical Information and Modeling, 2025).

Experiments:
[1] = molecular target: T1, human CYP19A1 (aromatase) (Homo sapiens, UniProt P11511); assay: aromatase inhibition in yeast expressing human CYP19A1 and CPR, estradiol biosensor (yEGFP, flow cytometry); assay type: cell-based
T1 sequence (P11511 1-503): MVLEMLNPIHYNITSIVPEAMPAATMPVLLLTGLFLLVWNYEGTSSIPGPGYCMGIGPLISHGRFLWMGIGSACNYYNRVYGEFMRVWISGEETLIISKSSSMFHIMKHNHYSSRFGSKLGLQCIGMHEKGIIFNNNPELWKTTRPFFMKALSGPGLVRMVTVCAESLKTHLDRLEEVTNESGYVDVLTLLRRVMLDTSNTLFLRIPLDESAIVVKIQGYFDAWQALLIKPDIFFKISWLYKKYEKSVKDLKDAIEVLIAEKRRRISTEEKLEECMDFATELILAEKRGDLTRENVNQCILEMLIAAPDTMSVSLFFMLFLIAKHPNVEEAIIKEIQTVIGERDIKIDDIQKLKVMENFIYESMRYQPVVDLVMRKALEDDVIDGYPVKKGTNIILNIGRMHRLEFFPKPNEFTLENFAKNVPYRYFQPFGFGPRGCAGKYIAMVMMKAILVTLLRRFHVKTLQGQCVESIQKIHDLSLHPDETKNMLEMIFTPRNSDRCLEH
T1 sequence (P16435 2-677 partner): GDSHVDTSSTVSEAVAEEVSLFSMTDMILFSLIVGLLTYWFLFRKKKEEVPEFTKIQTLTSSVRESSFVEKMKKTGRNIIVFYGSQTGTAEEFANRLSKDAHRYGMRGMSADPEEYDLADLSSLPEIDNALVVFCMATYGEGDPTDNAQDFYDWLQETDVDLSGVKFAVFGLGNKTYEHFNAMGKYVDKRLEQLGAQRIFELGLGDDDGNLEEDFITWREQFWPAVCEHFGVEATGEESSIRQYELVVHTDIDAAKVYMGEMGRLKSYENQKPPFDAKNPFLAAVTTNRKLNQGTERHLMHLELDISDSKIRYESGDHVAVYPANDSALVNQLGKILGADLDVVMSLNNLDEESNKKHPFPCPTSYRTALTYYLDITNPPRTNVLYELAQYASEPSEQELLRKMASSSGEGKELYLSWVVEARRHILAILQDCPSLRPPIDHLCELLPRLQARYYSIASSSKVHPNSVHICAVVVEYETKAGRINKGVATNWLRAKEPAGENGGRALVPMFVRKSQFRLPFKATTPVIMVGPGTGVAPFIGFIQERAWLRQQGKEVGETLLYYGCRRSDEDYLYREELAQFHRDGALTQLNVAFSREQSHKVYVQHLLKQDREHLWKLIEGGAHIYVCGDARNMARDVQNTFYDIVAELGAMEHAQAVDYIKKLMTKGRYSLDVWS

[2] = molecular target: T1, human CYP19A1 (aromatase); assay: cell-based; parameters: Whole-yeast human CYP19A1/CPR testosterone aromatization; estradiol quantified by yeast biosensor fluorescence, flow cytometry, per cent of control; details: Saccharomyces cerevisiae byMM1712; 1 uM inhibitor, testosterone substrate; read-out: % of control remaining
Experimental: Initially, these inhibitors were applied at a final concentration of 10 μM. […] In addition, 9a lacks a Cl atom and 9b lacks a keto group in comparison to 9. […] (a) Illustration of the enzymatic assay based on heterologous expression of human CYP19A1 used for testing candidate CYP19A1 inhibitors. […] Data are presented as mean ± SEM (n = 3).

[3] = molecular target: T1, human CYP19A1 (aromatase); assay: cell-based; parameters: Yeast expressing human CYP19A1/CPR converts testosterone; estradiol in supernatant read by yeast biosensor, flow cytometry; details: for inhibition at 1 µM: read-out: % inhibition (1 μM); for inhibition at 10 µM: read-out: % inhibition (10 μM)
Experimental: A 14-h precultivation period ensured that the aromatase catalytic capacity remained consistent across all independent experiments and the inhibitor cannot act on P450 expression levels. The initial OD600 was diluted to 0.04, and then the yeast culture’s OD600 was measured and adjusted to 2.00 with fresh SDC medium. One mL of yeast solution (OD600 = 2.00) was poured into the wells of a 48-well deep-well cell culture plate (Axygen P-5 ML-48-C). Subsequently, 1 mL of SDC medium containing 120 nM testosterone and either 10 μM or 1 μM of the inhibitor was added to each well containing the yeast solution. The mixture was incubated at 30 °C and 240 rpm for 2 h. After incubation, 1.5 mL of the mixture from each well was transferred to 2 mL tubes and centrifuged at 16,000 rpm to pellet the yeast cells. Then, 1.2 mL of the supernatant was moved to 1.5 mL tubes and labeled according to the inhibitor concentration. For each sample, 1 mL of the supernatant was transferred to a different well of a 48-well deep-well plate. Next, 980 μL of SDC medium and 20 μL of the precultured byMM1984 biosensor cell solution (OD600 adjusted to 5.00 after 14 h of preculture) were added to each well. Finally, flow cytometry was performed as previously described. The entire assay was repeated in three independent experiments to calculate the mean values. […] Initially, these inhibitors were applied at a final concentration of 10 μM. […] In addition, 9a lacks a Cl atom and 9b lacks a keto group in comparison to 9. […] Several factors were considered to avoid assay artifacts.[46] The biosensor gene circuit used in this study is orthogonal to the yeast chassis,[47] ensuring no interference between the biosensor and the yeast host, thus preventing false positives.

Row | Structure (SMILES) | IC50 [1] [µM] | remaining activity at 1 µM [2] [%] | inhibition at 1 µM [3] [%] | inhibition at 10 µM [3] [%]
1 | CC(NC(=O)c1cc2cc(Cl)ccc2oc1=O)c1ccc(-n2ccnc2)cc1 (racemic) [compound 9, N-(1-(4-(1H-imidazol-1-yl)phenyl)ethyl)-6-chloro-2-oxo-2H-chromene-3-carboxamide] | 0.271 ± 0.051 | 13 ± 2 |  | 
2 | O=C(NCc1ccc(-n2ccnc2)cc1)c1cc2ccccc2oc1=O [9a] | 1.04 ± 0.063 | 50 ± 1 | 51.9 | 87.4
3 | O=C(NCc1ccc(-n2ccnc2)cc1)C1=Cc2cc(Cl)ccc2OC1 [9b] | 1.25 ± 0.19 | 58 ± 1 | 43.8 | 85
4 | O=C(Nc1cccc(-c2cn3cccnc3n2)c1)c1ccc(Cl)cc1Cl [compound 1] |  |  |  | 25.9
5 | CSc1ccc2nc(N3CC(Cn4ccnc4)C3)sc2c1 [compound 2] |  |  |  | 30.9
6 | O=C(Cc1c(F)cccc1Cl)N1CCC(Cn2ccnc2)CC1 [compound 4] |  |  |  | 22.8
7 | COc1ccc(-c2cn3cccnc3n2)cc1NC(=O)Nc1ccc(F)cc1 [compound 7] |  |  |  | 25.6
8 | CC1(c2ccc(Cl)cc2Cl)OCC(Cn2cncn2)O1 (stereo not shown) [compound 8, 8] | 1.13 ± 0.158 |  |  | 
9 | CC1(c2ccc(Cl)cc2Cl)OCC(Cn2cncn2)O1 (stereo not shown) [compound 8] |  | 57 ± 7 | 44.3 | 81.7
10 | CC(NC(=O)c1cc2cc(Cl)ccc2oc1=O)c1ccc(-n2ccnc2)cc1 (stereo not shown) [compound 9] |  |  | 89.7 | 96.7
11 | O=c1cc(Cn2ccnc2)c2cc(O)c(-c3ccccc3)cc2o1 [compound 10] |  |  |  | 38.1
12 | N#Cc1ccc(C(c2ccc(C#N)cc2)n2cncn2)cc1 [letrozole] |  |  |  | 80.4
